Earlier results in patent US10588912B2, “Methods of reducing mammographic breast density and/or breast cancer risk” (Havah Therapeutics Pty Ltd., priority 2014, dated 2020).

Conditions: oral absorption

In the case of C[C@]12CC[C@H]3[C@@H](CCC4=CC(=O)CC[C@@]43C)[C@@H]1CC[C@@H]2O [testosterone], the “fraction broken down in the intestines by aromatase and other metabolic pathways” value is given as “approximately 85%”.
